Experimental data: patent publication US10004711B2, “Methods and compositions comprising 10-hydroxy-2-decenoic acid” (DSM IP ASSETS B.V., priority 2014, dated 2018)

Legend:
[1] = tested on: Neurons from the brain's hippocampus; experiment: In vitro neurite extension (Map2a staining per neuron); format: cell-based, rat; conditions: for % Map2a Staining/Neuron: 7 days incubation
Experimental: Neurons from the brain's hippocampus were derived from embryonic day (E17) rat pups and incubated with QBA for 7 days. The cultures were then stained with neuron-specific marker, microtubule associated protein-2a (Map2a) and cell nuclei were stained with 4′,6-diamidino-2-phenylindole (DAPI). Fluorescent images of the staining were then captured with a confocal microscope. The staining was quantitated by dividing the percent area of the Map2a staining by the number of neurons.

[2] = tested on: Neurons from the brain's hippocampus; experiment: Glutamate toxicity, mitochondrial health (TMRE); format: cell-based, rat; conditions: for Mitochondrial Health (% Control): glutamate 25 μM 24 h
Experimental: Neurons from the brain's hippocampus were derived from E17 pups and incubated for 7 days. The cells were pre-treated with QBA for 48 hours and subsequently challenged with glutamate (25 μM) for 24 hours. The cultures were then stained with propidium iodide, a marker of cell death, and with tetramethylrhodamine ethyl ester (TMRE), a marker for mitochondrial health. The fluorescence of each of these markers was then quantitated with a fluorimeter.

[3] = tested on: older male rats; experiment: Learning acquisition, Barnes maze task; format: in vivo, rat; conditions: for Escape Latency: average of two trial runs
Experimental: The dose-response characteristics of 10-Hydroxy-2-decenoic acid's (QBA's) potential brain health benefits during aging were assessed for cognitive performance in older male rats (16-17 months old; N=10-12 per group). Rats were fed QBA for 4-5 months prior to behavioral assessment. Spatial learning and memory performance was tested using the Barnes circular maze which consists of a 4-ft diameter, gray circular platform raised 90 cm above the floor level with 20 holes, 10 cm in diameter, evenly spaced around the circumference. Animals were trained to locate a black escape tunnel beneath one of the holes in response to aversive light stimuli. The latency to enter the escape box in each of two trials across four trial days was recorded. Shorter latencies across and within trial days is an indication of better cognitive performance.

[4] = Body weight of aged male rats fed QBA and/or DHA (Example 8); format: in vivo, rat
Experimental: Aged male rats were fed 10-Hydroxy-2-decenoic acid (QBA) for approximately […] from 12-months to 20-months of age and the weight of rats was recorded.

[5] = Weight management in mice, colitis-related disease state (cell transfer insult); format: in vivo, mouse; conditions: for % Original Wt: Diseased + QBA 60 mg/kg body weight/day
Experimental: Mice (45 days of age) were fed 60 mg/kg body weight/day QBA (equivalent to 24 mg/kg/d in rats; HED of ˜240 mg/day, N=10) or a control diet (N=15) for 28 days. […] After 28 days, all 10 of the mice fed QBA and 10 of the 15 control mice were subjected to a cell transfer insult wherein the mice were considered to be in a colitis-related disease state. The undiseased controls (N=5) and the diseased controls (N=10) continued on their control diets, and the diseased QBA-fed animals continued on their QBA diets (60 mg/kg body weight/day QBA), for an additional 49 days.

O=C(O)C=CCCCCCCCO [QBA, 10-Hydroxy-2-decenoic acid]
% Map2a Staining/Neuron ([1]; QBA 0.10 μM): 0.29%
% Map2a Staining/Neuron ([1]; QBA 0.30 μM): 0.32%
% Map2a Staining/Neuron ([1]; QBA 1.00 μM): 0.30%
% Map2a Staining/Neuron ([1]; QBA 3.00 μM): 0.31%
% Map2a Staining/Neuron ([1]; QBA 10.00 μM): 0.32%
% Map2a Staining/Neuron ([1]; QBA 30.00 μM): 0.32%
% Map2a Staining/Neuron ([1]; QBA 100.00 μM): 0.27%
growth of brain cells in culture ([1]; summary of Table 1): increased the growth of brain cells in culture
Mitochondrial Health (% Control) ([2]; QBA 0.10 μM pre-treatment 48 h): 101.94 % Control
Mitochondrial Health (% Control) ([2]; QBA 0.30 μM pre-treatment 48 h): 112.27 % Control
Mitochondrial Health (% Control) ([2]; QBA 1.00 μM pre-treatment 48 h): 110.50 % Control
Mitochondrial Health (% Control) ([2]; QBA 3.00 μM pre-treatment 48 h): 106.39 % Control
Mitochondrial Health (% Control) ([2]; QBA 10.00 μM pre-treatment 48 h): 111.02 % Control
Mitochondrial Health (% Control) ([2]; QBA 30.00 μM pre-treatment 48 h): 114.72 % Control
Mitochondrial Health (% Control) ([2]; QBA 100.00 μM pre-treatment 48 h): 123.80 % Control
cell health after glutamate toxicity ([2]; summary of Table 3): increased cell health
Escape Latency ([3]; QBA 0.4 mg/kg/day, trial day 1): 98.8 s
Escape Latency ([3]; QBA 0.4 mg/kg/day, trial day 2): 63.4 s
Escape Latency ([3]; QBA 0.4 mg/kg/day, trial day 3): 63.4 s
Escape Latency ([3]; QBA 0.4 mg/kg/day, trial day 4): 24.7 s
Escape Latency ([3]; QBA 4 mg/kg/day, trial day 1): 106.7 s
Escape Latency ([3]; QBA 4 mg/kg/day, trial day 2): 43.4 s
Escape Latency ([3]; QBA 4 mg/kg/day, trial day 3): 43.4 s
Escape Latency ([3]; QBA 4 mg/kg/day, trial day 4): 23.6 s
Escape Latency ([3]; QBA 12 mg/kg/day, trial day 1): 79.3 s
Escape Latency ([3]; QBA 12 mg/kg/day, trial day 2): 30.7 s
Escape Latency ([3]; QBA 12 mg/kg/day, trial day 3): 30.7 s
Escape Latency ([3]; QBA 12 mg/kg/day, trial day 4): 24.3 s
Escape Latency ([3]; QBA 24 mg/kg/day, trial day 1): 109.8 s
Escape Latency ([3]; QBA 24 mg/kg/day, trial day 2): 48.4 s
Escape Latency ([3]; QBA 24 mg/kg/day, trial day 3): 48.4 s
Escape Latency ([3]; QBA 24 mg/kg/day, trial day 4): 34.3 s
speed of learning acquisition (Barnes maze task) ([3]; male rats aged 16-17 months): increased the speed of learning acquisition
Avg Wt ([4]; QBA 12 mg/kg/day, study day 0): 547.0 g
Avg Wt ([4]; QBA 12 mg/kg/day, study day 4): 560.9 g
Avg Wt ([4]; QBA 12 mg/kg/day, study day 11): 571.5 g
Avg Wt ([4]; QBA 12 mg/kg/day, study day 18): 580.1 g
Avg Wt ([4]; QBA 12 mg/kg/day, study day 25): 584.5 g
Avg Wt ([4]; QBA 12 mg/kg/day, study day 32): 590.8 g
Avg Wt ([4]; QBA 12 mg/kg/day, study day 39): 591.7 g
Avg Wt ([4]; QBA 12 mg/kg/day, study day 46): 594.3 g
Avg Wt ([4]; QBA 12 mg/kg/day, study day 53): 595.4 g
Avg Wt ([4]; QBA 12 mg/kg/day, study day 60): 598.7 g
Avg Wt ([4]; QBA 12 mg/kg/day, study day 67): 597.8 g
Avg Wt ([4]; QBA 12 mg/kg/day, study day 74): 603.7 g
Avg Wt ([4]; QBA 12 mg/kg/day, study day 81): 607.3 g
Avg Wt ([4]; QBA 12 mg/kg/day, study day 88): 608.5 g
Avg Wt ([4]; QBA 12 mg/kg/day, study day 95): 612.8 g
Avg Wt ([4]; QBA 12 mg/kg/day, study day 102): 614.5 g
Avg Wt ([4]; QBA 12 mg/kg/day, study day 109): 617.0 g
Avg Wt ([4]; QBA 12 mg/kg/day, study day 116): 617.2 g
Avg Wt ([4]; QBA 12 mg/kg/day, study day 123): 617.3 g
Avg Wt ([4]; QBA 12 mg/kg/day, study day 130): 616.9 g
Avg Wt ([4]; QBA 12 mg/kg/day, study day 137): 621.5 g
Avg Wt ([4]; QBA 12 mg/kg/day, study day 144): 619.1 g
Avg Wt ([4]; QBA 12 mg/kg/day, study day 151): 620.5 g
Avg Wt ([4]; QBA 24 mg/kg/day, study day 0): 551.5 g
Avg Wt ([4]; QBA 24 mg/kg/day, study day 4): 566.8 g
Avg Wt ([4]; QBA 24 mg/kg/day, study day 11): 573.4 g
Avg Wt ([4]; QBA 24 mg/kg/day, study day 18): 585.7 g
Avg Wt ([4]; QBA 24 mg/kg/day, study day 25): 593.1 g
Avg Wt ([4]; QBA 24 mg/kg/day, study day 32): 596.0 g
Avg Wt ([4]; QBA 24 mg/kg/day, study day 39): 599.7 g
Avg Wt ([4]; QBA 24 mg/kg/day, study day 46): 601.5 g
Avg Wt ([4]; QBA 24 mg/kg/day, study day 53): 601.8 g
Avg Wt ([4]; QBA 24 mg/kg/day, study day 60): 606.5 g
Avg Wt ([4]; QBA 24 mg/kg/day, study day 67): 607.5 g
Avg Wt ([4]; QBA 24 mg/kg/day, study day 74): 611.8 g
Avg Wt ([4]; QBA 24 mg/kg/day, study day 81): 614.5 g
Avg Wt ([4]; QBA 24 mg/kg/day, study day 88): 617.8 g
Avg Wt ([4]; QBA 24 mg/kg/day, study day 95): 620.2 g
Avg Wt ([4]; QBA 24 mg/kg/day, study day 102): 623.9 g
Avg Wt ([4]; QBA 24 mg/kg/day, study day 109): 627.4 g
Avg Wt ([4]; QBA 24 mg/kg/day, study day 116): 630.3 g
Avg Wt ([4]; QBA 24 mg/kg/day, study day 123): 629.2 g
Avg Wt ([4]; QBA 24 mg/kg/day, study day 130): 630.3 g
Avg Wt ([4]; QBA 24 mg/kg/day, study day 137): 633.5 g
Avg Wt ([4]; QBA 24 mg/kg/day, study day 144): 642.1 g
Avg Wt ([4]; QBA 24 mg/kg/day, study day 151): 638.6 g
body weight versus control, repeated measures ANOVA ([4]; all doses versus 0 mg/kg/day QBA or 0 mg/kg/day QBA+0.07% DHA): small but significant increase
body weight maintenance in aging male rats ([4]; summary of Table 14): helped to maintain healthy body weight
% Original Wt ([5]; day 0): 0.00%
% Original Wt ([5]; day 3): 1.93%
% Original Wt ([5]; day 7): 5.33%
% Original Wt ([5]; day 10): 9.91%
% Original Wt ([5]; day 14): 9.09%
% Original Wt ([5]; day 17): 9.10%
% Original Wt ([5]; day 21): 12.60%
% Original Wt ([5]; day 24): 15.47%
% Original Wt ([5]; day 28* (cell transfer insult after 28 days)): 16.19%
% Original Wt ([5]; day 31): 18.82%
% Original Wt ([5]; day 35): 20.65%
% Original Wt ([5]; day 38): 19.66%
% Original Wt ([5]; day 42): 21.27%
% Original Wt ([5]; day 45): 22.86%
% Original Wt ([5]; day 49): 24.04%
% Original Wt ([5]; day 52): 24.05%
% Original Wt ([5]; day 56): 22.29%
% Original Wt ([5]; day 59): 21.83%
% Original Wt ([5]; day 63): 23.89%
% Original Wt ([5]; day 66): 22.42%
% Original Wt ([5]; day 70): 22.95%
% Original Wt ([5]; day 73): 21.96%
% Original Wt ([5]; day 77): 20.56%
weight of mice in a diseased state versus undiseased controls ([5]; QBA 60 mg/kg body weight/day, colitis-related disease state): maintained their weight similar to the undiseased control mice
percentage increase in body weight versus control diet ([5]; QBA 60 mg/kg body weight/day, first 28 days, before insult): greater percentage increase in body weight
